{"source": "patent US20040043047A1", "about": "“Cosmetic or dermatological compositions containing at least one substance for increasing the functionality and/or expression of the CD44 membrane receptors of skin cells” (priority 1999, published 2004)", "key": {"CD44 receptor": {"test_system": "CD44 receptor", "assay": "Functionality of the CD44 receptor: hyaluronic acid binding by keratinocytes after 48 hours of treatment, normalized to cellular DNA (protocol II-9)", "format": "cell-based, human", "details": "0.22 mM", "method": "The products whose activity on the expression of the CD44 receptor it is desired to evaluate are added to the culture medium 24 hours after inoculation of the cells. To do this, the inoculation medium is removed and replaced with an identical medium containing the test substance. The incubation then continues for 48 hours. Controls are carried out in the absence of the products to be evaluated, and in the presence of the excipient which was used to dissolve them. All the factors are otherwise equal.\n9—Measurement of the functionality of the CD44 receptor.\n(§1) The values thus obtained are normalized, taking account of the amount of cellular material present in the wells. To do this, the cellular DNA content is measured by the DAPI method (see protocol below).\nIII—Quantification of the Cellular DNA with […] Dihydrochloride (DAPI)\nThe quantification of the cellular DNA may be carried out directly on the cultures after quantification of the CD44 expression.\n30 μl of methanol at −20° C. are added to each well for 1 min.\nAfter rinsing twice with PBS, a 20 μg/ml DAPI solution is added over 15 minutes at ambient temperature and in darkness.\n3—Fluorescence Quantification:\nAfter rinsing twice with PBS, the fluorescence present in the wells is read with 50 μl of PBS at λ excitation=355 nm and λemission=460 nm."}, "CD44": {"test_system": "CD44", "assay": "Expression of the hyaluronic acid receptor (CD44) at the surface of keratinocytes, anti-CD44 antibody labelling normalized to cellular DNA (protocol II)", "format": "cell-based, human", "details": "0.22 mM", "method": "II—Measurement of the Expression of the Hyaluronic Acid Receptor (CD44) at the Surface of Keratinocytes\nSteps 1 and 2 are identical to steps 1 and 2 of I.\n3—Binding of the cells to 2% paraformaldehyde in PBS containing calcium and magnesium for 5 minutes at ambient temperature.\n4—Saturation of the Nonspecific Antigen-Antibody Binding Sites:\nAfter rinsing twice with PBS, the cells are incubated with PBS saturation medium with calcium and magnesium supplemented with 5% v/v of calf serum and 0.05% w/v of sodium azide, for 1 hour at ambient temperature. […]\n7—Fluorescence Quantification:\nAfter rinsing twice with the saturation medium, the fluorescence present in the wells is read with 50 μl of PBS at λ excitation=544 nm and k emission=590 nm. […]\nThe products whose activity on the expression of the CD44 receptor it is desired to evaluate are added to the culture medium 24 hours after inoculation of the cells. […] Controls are carried out in the absence of the products to be evaluated, and in the presence of the excipient which was used to dissolve them. […]\nas §1\nIII—Quantification of the Cellular DNA with […] Dihydrochloride (DAPI) […]\n3—Fluorescence Quantification: […]"}, "human keratinocytes": {"test_system": "human keratinocytes", "details": "for Amount of fluorescence measured compared with calcium chloride at equivalent molarity: 5 and 10 mM; for Fluorescence measured (FU) Mean: Table III", "method": "I-Measurement of the Amount of Haluronic Acid Bound to the Surface of Keratinocytes\nThe following steps are performed:\n15,000 human keratinocytes are inoculated in culture wells (96-well plates) in a K-SFM medium (Gibco).\n2—Production of Confluent Cultures:\nIncubation of the cultures for 72 hours at 37° C. under a humidity-saturated atmosphere, with 5% CO2, with renewal of the culture medium after 48 h.\n3—Binding of Hyaluronic Acid:\nIncubation of the cells for 4 hours at 4° C. with hyaluronic acid covalently bonded to a fluorochrome, […] (HA-FA), synthesized in the laboratory according to the technique described in “Preparation and properties of fluoresceine-labelled hyaluronate; carbohydrate research, 1975, Vol. 44, pp. 251-257”, prepared in K-SFM containing 0.2% sodium azide.\n4—Evaluation of the Activity of the Test Products:\nThe products for which it is desired to evaluate the action on the amount of HA-FA bound by keratinocytes are added to the incubation medium at the start of incubation. Controls are carried out in the absence of the products to be evaluated and in the presence of their excipient which was used to dissolve them.\n5—Nonspecific Binding of HA-FA.\nIn order to determine the nonspecific labelling, the same experimental conditions as in step 3 are rigorously used, but with the addition of 200 times more hyaluronic acid not labelled with a fluorochrome.\n6—Fluorescence Quantification:\nAfter the HA-FA binding medium has been removed, two rinses with PBS are carried out, after which the fluorescence bound to the keratinocytes is measured at an excitation wavelength λex 485 nm and an emission wavelength λem=538 nm.\n7—Expressing the Results:\nThe results are expressed in fluorescence units (“specific fluorescence”), with the nonspecific fluorescence being deducted (see 5-).\nTo do this, the fluorescence values measured are reduced to the cellular DNA content, carried out according to the DAPI method (see III-)."}}, "note": "Like-named read-outs stand apart in the source and are kept apart here. Marks after values point to notes of the source that are not given here."}
{"compound": "CC(O)C(=O)[O-].[Na+]", "note": "(centres unmarked) [Sodium lactate, sodium lactate]", "values": [{"measurement": "Binding of hyaluronic acid to the surface of human keratinocytes Binding (FU)/cellular DNA (FU) Mean", "setting": "CD44 receptor; 48 hours of treatment, control 59 ± 8.5", "result": "105 ± 24"}, {"measurement": "Binding of hyaluronic acid to the surface of human keratinocytes % increase", "setting": "CD44 receptor; 48 hours, versus 0 mM control", "result": 78, "unit": "%"}, {"measurement": "Expression of CD44 at the surface of human keratinocytes % increase", "setting": "CD44; 48 hours, versus 0 mM control", "result": 32, "unit": "%"}, {"measurement": "Expression of CD44 at the surface of human keratinocytes CD44 (FU)/cellular DNA (FU) labelling Mean", "setting": "CD44; cells treated for 48 hours, control 189 ± 28", "result": "249 ± 31"}]}
{"compound": "calcium gluconate", "values": [{"measurement": "Amount of fluorescence measured compared with calcium chloride at equivalent molarity", "setting": "human keratinocytes", "result": "significantly greater"}]}
{"compound": "O=C([O-])[C@H](O)[C@@H](O)[C@H](O)[C@H](O)CO.[Na+]", "note": "[sodium gluconate]", "values": [{"measurement": "Fluorescence measured (FU) Mean", "setting": "human keratinocytes; sodium gluconate 10 mM with CaCl2 2.5 mM", "result": 27, "unit": "FU"}, {"measurement": "Fluorescence measured (FU) Mean", "setting": "human keratinocytes; sodium gluconate 10 mM with CaCl2 5 mM", "result": "84* FU"}, {"measurement": "Fluorescence measured (FU) Mean", "setting": "human keratinocytes; sodium gluconate 10 mM with CaCl2 10 mM", "result": "2,186* FU"}, {"measurement": "Fluorescence measured (FU) Mean", "setting": "human keratinocytes; sodium gluconate 10 mM, CaCl2 0 mM", "result": 6, "unit": "FU"}, {"measurement": "Increase of the effects of calcium on hyaluronic acid binding, factor", "setting": "human keratinocytes; relatively optimized conditions (10 mM CaCl2 / 2.5 mM sodium gluconate)", "result": "≥ 12"}]}
{"compound": "manganese chloride [MnCl2]", "values": [{"measurement": "Amount of fluorescence measured compared with calcium chloride at equivalent molarity", "setting": "human keratinocytes", "result": "significantly greater"}]}
